Results taken from patent publication US12622975B2, “Peptide-conjugated prodrugs” (priority 2019, dated 2026).
Values after ≈ are worked out from the molar mass of the structure shown. “Also recorded” adds a separate entry of the source. Where two headings read alike, the source gives them in different places. Numbered stars: 1 amine (or outer) side, 2 acyl side, 3 side chain; on linkers, the order of the positions; unused ones are H or OH. Square brackets hold non-standard residues; d marks the D form. Peptide text beside a SMILES is read from it. * marks the point of attachment. X1 = O=C(CCC(=O)[*:2])OCC(N[*:1])C(O)c1ccc([N+](=O)[O-])cc1; Dichloroacetyl = O=C(C(Cl)Cl)*

Columns and labels:
E. coli (K-12) lysate = assay: Hydrolysis assay with E. coli lysate; format: in vitro ADME; conditions: for apparent first-order rate constant of hydrolysis: compound 200 μM, E. coli lysate 0.1 U/mL, pH 7.4 PBS, 37° C.
Procedure: (§1) Hydrolysis assay: Wild-type E. coli strains (K12) were harvested by centrifugation and the cell pellets were lysed using a sonic device. After centrifugation, the supernatant was collected and the proteinase inhibitor was added in the E. coli lysate. The concentration of E. coli lysate was normalized by the fluorescence intensity of 5-carboxyfluorescein diacetate (CFDA). Briefly, different concentrations of CES (4 U/mL, 2 U/mL, 1 U/mL, 0.5 U/mL, 0.25 U/mL, 0.125 U/mL, 0.0625 U/mL, 0.03125 U/mL, 0.015625 U/mL and 0 U/mL) and different amount of E. coli lysates were prepared in PBS buffer. Followed by, 25 μM of CFDA was added in and incubated at room temperature for 1 hour. Then the fluorescence was tested to draw a fluorescence-concentration dependent curve for figuring out the concentration of E. coli lysates. Solutions of CLsuGG (200 μM) were prepared in pH 7.4 PBS buffer. CES and E. coli lysate (0.1 U/mL) were added and incubated with above solutions at 37° C. for 24 hours. At different time points, the solution was taken out, extracted with an equal volume of butanol, concentrated to dryness, and resuspended with butanol for HPLC analysis. HPLC was performed with Agilent 1100 Series Liquid Chromatograph equipped with an XTerra C18 reverse phase column and Variable Wavelength Detector. The hydrolyzed mixture resuspended in 1 mL of butanol was injected to HPLC mobile phase (0.1% trifluoroacetic acid, the starting ratio: 10% acetonitrile and 90% water). The system was run at a flow rate of 10 mL/min.
as §1, with “analysis.” for “analysis. HPLC was performed with Agilent 1100 Series Liquid Chromatograph equipped with an XTerra C18 reverse phase column and Variable Wavelength Detector. The hydrolyzed mixture resuspended in 1 mL of butanol was injected to HPLC mobile phase (0.1% trifluoroacetic acid, the starting ratio: 10% acetonitrile and 90% water). The system was run at a flow rate of 10 mL/min.”

[1] = system: acrA efflux pump deletion mutant of E. coli; conditions: acrA mutant versus wild-type E. coli
Procedure: (§2) Bacteria culture and inhibitory activity assay: Single esterase (bioH, frsA, ybfF, yfbB, yqiA, yeiG, or ypfH) deletion mutants, bacterial transporter (ydgR, fepA and ompF) deletion mutants and the efflux pump (acrA) deletion mutant were all purchased from Dharmacon Horizon Discovery (Cambridge, United Kingdom). The K12 wild-type E. coli strain (MG1655) was cultured in autoclaved LB medium (25 g/L LB broth/water) in a shaker-incubator overnight to stationary growth phase, and then sub-cultured in the same medium after dilution to OD600 of 0.05. Compounds were added at different concentrations. The mixture of bacteria and compounds were placed (200 μL/well) into 96-well clear flat bottom plates. In all plates, the OD600 was measured before and after a 16 hour incubation at 37° C.
(§3) Several representative peptides conjugating CLsu (e.g., 1c, 1d, 2b and 2c) were chosen to study the effects of conjugated peptides on the uptake of the prodrugs.

[2] = system: ydgR, fepA, ompF transporter deletion mutants of E. coli; conditions: mutants versus wild-type E. coli
Procedure: as §2, §3

[3] = system: wild type E. coli strain (K-12); assay: Bacteria culture and inhibitory activity assay (MIC); format: cell-based; conditions: for Effect of addition of exogenous PLE on inhibitory efficacy: porcine liver esterase 1 U/mL; for MIC: Escherichia coli
Procedure: Bacteria culture and inhibitory activity assay: Single esterase (BioH, YjfP, FrsA, YbfF, YfbB, YqiA, YeiG, or and YpfH) deletion mutants were purchased from Dharmacon Horizon Discovery (Cambridge, United Kingdom). […] Compounds were added at different concentrations.
Compounds were added at different concentrations.

[4] = Stability in human serum (LC-MS); format: in vitro ADME; conditions: 200 μM, 37° C.; for Compounds remaining (%) 0 h / Compounds remaining (%) 2 h / Compounds remaining (%) 24 h: human serum
[5] = system: esterase (bioH, yjfP, frsA, ybfF, yfbB, ypfH, yeiG, or yqiA) deletion mutants of E. coli; format: cell-based; conditions: single esterase gene deletion
Procedure: as §2, with “(BioH, YjfP, FrsA, YbfF, YfbB, YqiA, YeiG,” for “(bioH, frsA, ybfF, yfbB, yqiA, yeiG,”, “or” for “or ypfH) deletion mutants, bacterial transporter (ydgR, fepA”, “YpfH)” for “ompF)”, “mutants” for “mutants and the efflux pump (acrA) deletion mutant”, “were” for “were all”, “after” for “after a”
as §2

HS-5 cells = assay: Cell viability assay (MTT), HS-5; format: cell-based, human; conditions: 24 hours; for cytotoxicity of control compounds against HS-5 cells: around MIC values (0.5 μM); for cytotoxicity / cell viability of HS-5 cells: 20 μM
carboxylesterase (CES) = assay: Hydrolysis assay with exogenous carboxylesterase; format: in vitro ADME, porcine; conditions: CES 0.1 U/mL
Source text: Experimental materials and instruments. All the solvents and chemical reagents were used directly as received from the commercial sources without further purification unless otherwise stated. Carboxylesterase (CES) from porcine liver was purchased from Sigma-Aldrich (lyophilized powder, >15 units/mg solid; Unit definition: One unit will hydrolyze 1.0 μmole of ethyl butyrate to butyric acid and ethanol per min at pH 8.0 at 25). CLsuGG, CLsuG, CLsuGGG were purified with Agilent 1100 Series Liquid Chromatography system, equipped with an XTerra C18 RP column and Variable Wavelength detector.
as §1, with “Briefly, different concentrations of CES (4 U/mL, 2 U/mL, 1 U/mL, 0.5 U/mL, 0.25 U/mL, 0.125 U/mL, 0.0625 U/mL, 0.03125 U/mL, 0.015625 U/mL and 0 U/mL) and different amount of E. coli lysates were prepared in PBS buffer. Followed by, 25 μM of CFDA was added in and incubated at room temperature for 1 hour.” left out, “CES and E. coli lysate (0.1 U/mL) were added and incubated with above solutions at 37° C. for 24 hours.” left out

[6] = wild type E. coli (K-12), read-out: MIC
[7] = wild type E. coli (K-12), read-out: MIC (μg/mL)

SMILES	apparent first-order rate constant of hydrolysis (E. coli (K-12) lysate)	reduction of the viabilities of the acrA deletion mutant treated by the conjugates [1]	effect of deletion of ydgR, fepA, or ompF on treated bacteria [2]	Effect of addition of exogenous PLE on inhibitory efficacy [3]	MIC (μM) ([3]; wild type E. coli (K-12))	Compounds remaining (%) 0 h [4]	Compounds remaining (%) 2 h [4]	Compounds remaining (%) 24 h [4]	reduction of antibacterial activity by deletion of the cytoplasmic esterase [5]	other results
NCCCCC(NC(=O)C(CCCCN)NC(=O)CCC(=O)OCC(NC(=O)C(Cl)Cl)C(O)c1ccc([N+](=O)[O-])cc1)C(=O)O (stereo not drawn) [Compound 2b]	0.317 h⁻¹	20%	hardly rescues the bacteria	hardly changes	200 µM (≈ 136 µg/mL)	100%	52.9%	0%	about 20%	
NCCCCC(NC(=O)CNC(=O)CCC(=O)OCC(NC(=O)C(Cl)Cl)C(O)c1ccc([N+](=O)[O-])cc1)C(=O)O (stereo not drawn) [Compound 2f]					20 µM (≈ 12.2 µg/mL)	100%	0%	0%		
O=C(O)c1cn(C2CC2)c2cc(N3CCNCC3)c(F)cc2c1=O [ciprofloxacin]										cytotoxicity of control compounds against HS-5 cells (HS-5 cells): relatively low cytotoxicity
O=C(O)CNC(=O)C(CO)NC(=O)CCC(=O)OCC(NC(=O)C(Cl)Cl)C(O)c1ccc([N+](=O)[O-])cc1 (stereo not drawn) [Compound 1d]	1.267 h⁻¹	40%	hardly rescues the bacteria	hardly changes	40 µM (≈ 22.7 µg/mL)	100%	16.7%	0%	~10%	
O=C(CCC(=O)OCC(NC(=O)C(Cl)Cl)C(O)c1ccc([N+](=O)[O-])cc1)NCC(=O)NCC(=O)NC(Cc1ccccc1)C(=O)NC(Cc1ccccc1)C(=O)O (stereo not drawn) [Compound 1o] (Dichloroacetyl-[X1]GGFF-OH; configuration not given here)					20 µM (≈ 16.6 µg/mL)	100%	7.2%	0%		
NCCCCC(NC(=O)C(CCCCN)NC(=O)CCC(=O)OCC(NC(=O)C(Cl)Cl)C(O)c1ccc([N+](=O)[O-])cc1)C(=O)O (stereo not drawn) [Compound 2c]	0.310 h⁻¹	50%	hardly rescues the bacteria	hardly changes	200 µM (≈ 136 µg/mL)	100%	49.2%	0%	about 20%	
O=C(CCC(=O)OCC(NC(=O)C(Cl)Cl)C(O)c1ccc([N+](=O)[O-])cc1)NCC(=O)NCC(=O)NC(Cc1ccccc1)C(=O)O (stereo not drawn) [Compound 1k]					20 µM (≈ 13.7 µg/mL)	100%	0%	0%		
O=C(O)CCC(=O)OC[C@@H](NC(=O)C(Cl)Cl)[C@H](O)c1ccc([N+](=O)[O-])cc1 [CLsu, chloramphenicol succinate, reference compound]					>200 µM	100%	96.2%	87.0%		fraction hydrolyzed (E. coli (K-12) lysate; 24 hours after addition of E. coli lysate): less than 20%; MIC ([3]; read-out: MIC value before addition of exogenous CES): 90 µM; MIC ([3]; FIG. 3B, with exogenous carboxylesterase (CES), read-out: MIC value after addition of exogenous CES): 49 µM; MIC [3, 6]: > 200 µM; MIC [3, 7]: > 84.6 µg/mL; MIC (μg/mL) ([3]; wild type E. coli (K-12)): >84.6 µg/mL; cytotoxicity / cell viability of HS-5 cells (HS-5 cells): largely innocuous; also recorded: lower cytotoxicity than CL; conversion in human serum ([4]; after 24 hours): less than 15%; hydrolysis with addition of CES (carboxylesterase (CES)): hardly undergoes hydrolysis
CC[C@H]1OC(=O)[C@H](C)C(=O)[C@H](C)[C@@H](O[C@@H]2O[C@H](C)C[C@H](N(C)C)[C@H]2O)[C@](C)(OC)C[C@@H](C)C(=O)[C@H](C)[C@H]2N(CCCCn3cnc(-c4cccnc4)c3)C(=O)O[C@]12C [telithromycin]										cytotoxicity of control compounds against HS-5 cells (HS-5 cells): relatively low cytotoxicity
O=C(CCC(=O)OCC(NC(=O)C(Cl)Cl)C(O)c1ccc([N+](=O)[O-])cc1)NCC(=O)NC(CO)C(=O)O (stereo not drawn) [Compound 1c]	3.763 h⁻¹	30%	hardly rescues the bacteria	hardly changes	20 µM (≈ 11.3 µg/mL)	100%	0%	0%	about 20%	
O=C(N[C@H](CO)[C@H](O)c1ccc([N+](=O)[O-])cc1)C(Cl)Cl [CL, chloramphenicol, reference compound]										MIC [3, 6]: 20 µM; MIC [3, 7]: 6.5 µg/mL; cytotoxicity / cell viability of HS-5 cells (HS-5 cells): reduced the viability
